Drawing on US20230339851A1, “CXCR6 SULFONAMIDE COMPOUNDS” (CHEMOCENTRYX, INC., priority 2022, published 2023), this text covers IC50 for 65 molecules.

T1 sequence (O00574 whole entry): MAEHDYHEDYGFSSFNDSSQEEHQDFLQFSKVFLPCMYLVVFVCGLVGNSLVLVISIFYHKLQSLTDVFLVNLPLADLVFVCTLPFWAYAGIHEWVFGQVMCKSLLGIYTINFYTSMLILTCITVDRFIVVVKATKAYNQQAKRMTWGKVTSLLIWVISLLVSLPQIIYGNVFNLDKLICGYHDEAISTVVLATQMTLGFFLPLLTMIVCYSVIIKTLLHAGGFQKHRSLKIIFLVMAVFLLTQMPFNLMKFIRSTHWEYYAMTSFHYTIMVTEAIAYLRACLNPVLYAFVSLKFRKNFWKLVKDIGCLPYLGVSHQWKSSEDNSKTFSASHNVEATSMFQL

This test has as its target T1, human CXCR6 (Homo sapiens, UniProt O00574).
T1 construct: expressed in transfected cells
As to the kind of experiment: Radioligand Binding Assay (125I-CXCL16 displacement). Particulars: L1.2 cells stably transfected with human CXCR6 cDNA, 0.1 nM 125I-CXCL16, 4° C., three-hour incubation; read-out: Potency (IC50). An outline of the steps:
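Displacement of 0.1 nM 125I-CXCL16 from human CXCR6 stably expressed in L1.2 cells was measured after a 3 h, 4 °C incubation in HBSS with 0.1% BSA. Filter-bound cpm were counted, and IC50 values came from a 3-parameter nonlinear fit.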
In the case of `Cc1cc(NC(=O)c2cocn2)ccc1S(=O)(=O)Nc1cccc(C(F)(F)F)c1` [Example 1.301], the IC50 lay in the range of 2000 to 20000 nM. With `CCOc1cc(NC(=O)C2(COC)CC2)ccc1S(=O)(=O)Nc1cccc(OC(F)(F)F)c1` [Example 1.302] the figure was 750 to 2000 nM; with `CCOc1cc(NC(=O)C2CCC=C[C@@H]2O)ccc1S(=O)(=O)Nc1cccc(OC(F)(F)F)c1` (some centres unmarked) [Example 1.303], no more than 200 nM; with `COc1cc(NC(=O)C2CCOCC2)ccc1S(=O)(=O)Nc1cccc(C(F)(F)F)c1` [Example 1.304], 750 to 2000 nM.

In the case of `CCOc1cc(NC(=O)[C@H]2[C@H](C)COC[C@@H]2C)ccc1S(=O)(=O)Nc1cccc(OC(F)(F)F)c1` [Example 1.305], the IC50 was no more than 200 nM. The same measure for `Cc1cc(NC(=O)c2cccnc2C)ccc1S(=O)(=O)Nc1cccc(C(F)(F)F)c1` [Example 1.306]: 750 to 2000 nM; for `CCOc1cc(NC(=O)[C@H]2CCCC[C@@H]2OC)ccc1S(=O)(=O)Nc1cccc(OC(F)(F)F)c1` [Example 1.307]: 200 to 750 nM; for `CCOc1cc(NC(=O)[C@@H](O)C(C)C)ccc1S(=O)(=O)Nc1cccc(C2CC2)c1` [Example 1.308]: no more than 200 nM.

As for `CCOc1cc(NC(=O)C(CO)CC2CCOCC2)ccc1S(=O)(=O)Nc1cccc(OC(F)(F)F)c1` (centres unmarked) [Example 1.309], the IC50 was in the range of 200 to 750 nM. Turning to `CCCc1cc(NC(=O)[C@@H](CO)C(C)C)ccc1S(=O)(=O)Nc1cccc(OC(F)(F)F)c1` [Example 1.311], the IC50 is no more than 200 nM. The same measure for `CCOc1cc(NC(=O)[C@@H](O)C(C)C)ccc1S(=O)(=O)Nc1cccc(C(F)(F)F)c1C` [Example 1.312]: 2000 to 20000 nM; for `CCOc1cc(NC(=O)[C@@H](NC(C)=O)c2ccccc2)ccc1S(=O)(=O)Nc1cccc(OC(F)(F)F)c1` [Example 1.313]: no more than 200 nM; for `CCOc1cc(NC(=O)c2ccc(N(C)C)cc2)ccc1S(=O)(=O)Nc1cccc(OC(F)(F)F)c1` [Example 1.315]: 750 to 2000 nM. On to `CCOc1cc(NC(=O)C2CCN(C)C(=O)C2)ccc1S(=O)(=O)Nc1cccc(OC(F)(F)F)c1` (centres unmarked) [Example 1.316], for which the IC50 was in the range of 750 to 2000 nM. With `CC(C)Oc1cc(NC(=O)c2ccnn2C)ccc1S(=O)(=O)Nc1cccc(C(F)(F)F)c1` [Example 1.317] the figure was 2000 to 20000 nM. The same measure for `CCOc1cc(NC(=O)C2(O)CC2)ccc1S(=O)(=O)Nc1cccc(OC(F)(F)F)c1` [Example 1.318]: 750 to 2000 nM; for `CCOc1cc(NC(=O)C2CC=CC2)ccc1S(=O)(=O)Nc1cccc(OC(F)(F)F)c1` [Example 1.319]: 750 to 2000 nM; for `CCOc1cc(NC(=O)[C@@H](O)C(C)C)ccc1S(=O)(=O)Nc1cccc(OC(F)(F)F)c1F` [Example 1.320]: 200 to 750 nM.

With `CC(=O)Nc1ccc(S(=O)(=O)Nc2cccc(C(F)(F)F)c2)c(C)c1` [Example 1.321], the IC50 was in the range of 2000 to 20000 nM. With `Cc1cc(NC(=O)[C@@H](O)C(C)C)ccc1S(=O)(=O)Nc1cccc(OC(F)(F)F)c1` [Example 1.322] the figure was no more than 200 nM. On to `COc1cc(NC(=O)[C@H]2CCCNC2)ccc1S(=O)(=O)Nc1cccc(C(F)(F)F)c1` [Example 1.323], for which the IC50 lay in the range of 2000 to 20000 nM. Consider `CCOc1cc(NC(=O)[C@@H](NS(C)(=O)=O)C(C)C)ccc1S(=O)(=O)Nc1cccc(OC(F)(F)F)c1` [Example 1.324], for which the IC50 was no more than 200 nM.

With `Cc1cc(NC(=O)c2c(C)noc2C)ccc1S(=O)(=O)Nc1cccc(C(F)(F)F)c1` [Example 1.325], the IC50 lay within 2000 to 20000 nM. `CCOc1cc(NC(=O)c2ccc(N)nc2)ccc1S(=O)(=O)Nc1cccc(OC(F)(F)F)c1` [Example 1.326]: the IC50 was no more than 200 nM.

Turning to `CCOc1cc(NC(=O)C(O)c2cccc(C(F)(F)F)c2)ccc1S(=O)(=O)Nc1cccc(OC(F)(F)F)c1` (centres unmarked) [Example 1.327], the IC50 is no more than 200 nM. In the case of `Cc1cc(NC(=O)[C@@H]2CCCN2)ccc1S(=O)(=O)Nc1cccc(C(F)(F)F)c1` [Example 1.328], the IC50 is 750 to 2000 nM. Take `CCOc1cc(NC(=O)[C@@H](O)c2ccccc2F)ccc1S(=O)(=O)Nc1cccc(OC(F)(F)F)c1` [Example 1.329]: the IC50 was no more than 200 nM. As to `Cc1cc(NC(=O)c2cccnc2)ccc1S(=O)(=O)Nc1cccc(C(F)(F)F)c1` [Example 1.330], the IC50 is 200 to 750 nM. As to `COc1cc(NC(=O)c2ccnn2C)ccc1S(=O)(=O)Nc1cccc(C#N)c1` [Example 1.331], the IC50 fell in the range of 2000 to 20000 nM. For `CCOc1cc(NC(=O)c2ccn(C)c(=O)c2C)ccc1S(=O)(=O)Nc1cccc(OC(F)(F)F)c1` [Example 1.332], the IC50 is no more than 200 nM. The same measure for `CCOc1cc(NC(=O)[C@@H](NC(N)=O)C(C)C)ccc1S(=O)(=O)Nc1cccc(OC(F)(F)F)c1` [Example 1.334]: no more than 200 nM; for `CCOc1cc(NC(=O)C(CCO)C(F)(F)F)ccc1S(=O)(=O)Nc1cccc(OC(F)(F)F)c1` (centres unmarked) [Example 1.335]: no more than 200 nM. For `COc1cc(NC(=O)c2ccnn2C)ccc1S(=O)(=O)Nc1cc(Cl)cc(OC(F)(F)F)c1` [Example 1.336], the IC50 lay within 200 to 750 nM. Take `COc1cc(NC(=O)c2ccnn2C)ccc1S(=O)(=O)Nc1cccc(N(C)C)c1` [Example 1.337]: the IC50 fell in the range of 750 to 2000 nM. The same measure for `CCOc1cc(NC(=O)C(O)c2ccc(Cl)cc2)ccc1S(=O)(=O)Nc1cccc(OC(F)(F)F)c1` (centres unmarked) [Example 1.338]: no more than 200 nM; for `CCOc1cc(NC(=O)C(C(=O)NCCO)C2CCCC2)ccc1S(=O)(=O)Nc1cccc(OC(F)(F)F)c1` (centres unmarked) [Example 1.339]: no more than 200 nM; for `CCOc1cc(NC(=O)[C@@H](O)C(C)C)ccc1S(=O)(=O)Nc1ccc2c(c1)OC(F)(F)O2` [Example 1.340]: 750 to 2000 nM.

On to `CCOc1cc(NC(=O)[C@@H](CO)C(C)C)ccc1S(=O)(=O)Nc1ccc(C)c(OC(F)(F)F)c1` [Example 1.342], for which the IC50 is no more than 200 nM. With `COc1cc(NC(=O)CC2CCCCC2)ccc1S(=O)(=O)Nc1cccc(C(F)(F)F)c1` [Example 1.343] the figure was 750 to 2000 nM; with `COc1cc(NC(=O)CC2CCCCC2)ccc1S(=O)(=O)Nc1cccc(C(F)(F)F)c1` [Example 1.344], no more than 200 nM; with `CCOc1cc(NC(=O)[C@@H](O)C2CCCCC2)ccc1S(=O)(=O)Nc1cccc(OC(F)(F)F)c1` [Example 1.345], no more than 200 nM. With `Cc1cc(NC(=O)c2ccns2)ccc1S(=O)(=O)Nc1cccc(C(F)(F)F)c1` [Example 1.346] the figure was no more than 200 nM; with `COc1cc(NC(=O)[C@@H]2CCC[C@@H]2N)ccc1S(=O)(=O)Nc1cccc(C(F)(F)F)c1` [Example 1.347], 2000 to 20000 nM.

For `COc1cccc(NS(=O)(=O)c2ccc(NC(=O)c3ccnn3C)cc2OC)c1` [Example 1.348], the IC50 lay in the range of 750 to 2000 nM. With `CCOc1cc(NC(=O)[C@@H](NC(C)=O)C(C)CC)ccc1S(=O)(=O)Nc1cccc(OC(F)(F)F)c1` (some centres unmarked) [Example 1.349], the IC50 is no more than 200 nM. The same measure for `CCOc1cc(NC(=O)[C@@H](CO)c2ccccc2)ccc1S(=O)(=O)Nc1cccc(Cl)c1C(F)(F)F` [Example 1.350]: 2000 to 20000 nM. For `Cn1nccc1C(=O)Nc1ccc(S(=O)(=O)Nc2cccc(C(F)(F)F)c2)c(Br)c1` [Example 1.351], the IC50 fell in the range of 200 to 750 nM. The same measure for `C=C(C)CC(CO)C(=O)Nc1ccc(S(=O)(=O)Nc2cccc(OC(F)(F)F)c2)c(OCC)c1` (centres unmarked) [Example 1.352]: no more than 200 nM. With `CCOc1cc(NC(=O)[C@@H](CO)C(C)C)ccc1S(=O)(=O)Nc1cccc(C(C)(C)O)c1` [Example 1.353] the figure was 2000 to 20000 nM; with `COc1cc(S(=O)(=O)Nc2cccc(C(F)(F)F)c2)c(C)cc1NC(C)=O` [Example 1.354], 2000 to 20000 nM; with `CCOc1cc(NC(=O)C2CCCCCC2)ccc1S(=O)(=O)Nc1cccc(OC(F)(F)F)c1` [Example 1.355], 750 to 2000 nM.

Regarding `CCOc1cc(NC(=O)[C@@H](CO)C(C)C)ccc1S(=O)(=O)Nc1ccc(C)c(CC)c1` [Example 1.356], the IC50 was no more than 200 nM. With `CCOc1cc(NC(=O)c2cccc3cn[nH]c23)ccc1S(=O)(=O)Nc1cccc(OC(F)(F)F)c1` [Example 1.357] the figure was 200 to 750 nM. `CCOc1cc(NC(=O)[C@H]2CC=CC[C@@H]2C(=O)O)ccc1S(=O)(=O)Nc1cccc(OC(F)(F)F)c1` [Example 1.358]: the IC50 is no more than 200 nM. For the molecule `Cc1cc(NC(=O)c2cscn2)ccc1S(=O)(=O)Nc1cccc(C(F)(F)F)c1` [Example 1.359], the IC50 fell in the range of 2000 to 20000 nM. With `COc1cc(NC(=O)C2CC3CCC2O3)ccc1S(=O)(=O)Nc1cccc(OC(F)(F)F)c1` (centres unmarked) [Example 1.360] the figure was 200 to 750 nM.

`O=C(Nc1ccc(S(=O)(=O)Nc2cccc(OC(F)(F)F)c2)c(OC(F)(F)F)c1)[C@@H](CO)c1ccccc1` [Example 1.361]: the IC50 is no more than 200 nM. Take `CCOc1cc(NC(=O)[C@@H](CO)C(C)C)ccc1S(=O)(=O)Nc1cccc(Cl)c1OC` [Example 1.362]: the IC50 fell in the range of 750 to 2000 nM.

As to `CCOc1cc(NC(=O)[C@@H](O)C(C)C)ccc1S(=O)(=O)Nc1ccc(C)c(C(F)(F)F)c1` [Example 1.363], the IC50 is no more than 200 nM. Take `COc1cc(NC(=O)C2CCO[C@@H]2C)ccc1S(=O)(=O)Nc1cccc(OC(F)(F)F)c1` (some centres unmarked) [Example 1.364]: the IC50 lay in the range of 750 to 2000 nM.

With `Cc1cc(NC(=O)C2CCN(C(=O)OC(C)(C)C)CC2)ccc1S(=O)(=O)Nc1cccc(C(F)(F)F)c1` [Example 1.365], the IC50 fell in the range of 2000 to 20000 nM. As for `CCOc1cc(NC(=O)c2ccncc2)ccc1S(=O)(=O)Nc1cccc(OC(F)(F)F)c1` [Example 1.366], the IC50 is no more than 200 nM.

As for `CCOc1cc(NC(=O)[C@@H](NS(C)(=O)=O)C(C)CC)ccc1S(=O)(=O)Nc1cccc(OC(F)(F)F)c1` (some centres unmarked) [Example 1.367], the IC50 was 2000 to 20000 nM. The same measure for `CCOc1cc(NC(=O)[C@@H](O)C(C)C)ccc1S(=O)(=O)Nc1ccc(C)c(Cl)c1` [Example 1.368]: no more than 200 nM; for `COc1cc(NC(=O)[C@@H](O)C(C)C)ccc1S(=O)(=O)Nc1ccc(C)c(C(F)(F)F)c1` [Example 1.369]: 200 to 750 nM.

By IC50 is commonly meant the concentration at which inhibition is half-maximal.
